Laboratory results as given in patent publication US6608185B1, “Substances KF-1040T4A,KF-1040T4B, KF-1040T5A, and KF-1040T5B, and process for producing same” (Kitasato Institute, priority 2002, dated 2003).
In brackets after ≈: the same amount, converted by molar mass.

How the values were obtained:
Solubility in solvents = assay type: physicochemical
acid sphingomyelinase = target: T1, acid sphingomyelinase (Homo sapiens, UniProt P17405); test: Influence on human placenta-originated acid sphingomyelinase; assay type: biochemical; conditions: human placenta enzyme (Sigma), pH 5.0, 37° C., 30 minutes; read-out: concentration corresponding to 50% inhibition of acid sphingomyelinase (converted)
T1 construct: an acid sphingomyelinase originating from human placenta (a product of Sigma Co.) was used as the enzyme source; purchased Sigma Co; host or cells: human placenta (tissue-derived enzyme)
T1 sequence (P17405 47-631): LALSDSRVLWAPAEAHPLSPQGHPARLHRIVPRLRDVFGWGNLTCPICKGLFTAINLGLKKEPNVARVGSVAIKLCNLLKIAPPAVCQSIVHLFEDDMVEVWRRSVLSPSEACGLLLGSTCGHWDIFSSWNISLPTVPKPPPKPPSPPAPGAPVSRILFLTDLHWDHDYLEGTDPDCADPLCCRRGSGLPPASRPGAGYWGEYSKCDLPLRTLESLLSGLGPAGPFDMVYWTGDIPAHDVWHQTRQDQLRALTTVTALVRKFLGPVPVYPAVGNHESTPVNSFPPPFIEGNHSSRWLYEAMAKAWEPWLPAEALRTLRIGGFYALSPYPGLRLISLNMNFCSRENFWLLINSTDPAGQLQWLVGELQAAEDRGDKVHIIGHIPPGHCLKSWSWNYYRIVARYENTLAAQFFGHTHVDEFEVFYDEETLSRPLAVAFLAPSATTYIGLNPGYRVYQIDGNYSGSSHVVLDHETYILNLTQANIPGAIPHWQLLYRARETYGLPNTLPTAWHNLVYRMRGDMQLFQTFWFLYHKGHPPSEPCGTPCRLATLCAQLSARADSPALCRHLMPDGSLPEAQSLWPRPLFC
Procedure: (4) Influence on Human Placenta-originated Acid Sphingomyelinase
The assessment of the influence of the substances on human placenta-originated acidic sphingomyelinase was performed in accordance with the method of Jones et al. [Biochem. Journal, 195, 373-382 (1981)] with partial modification.
Thus, an acid sphingomyelinase originating from human placenta (a product of Sigma Co.) was used as the enzyme source and thereto were added 250 mM of sodium acetate buffer solution (pH 5.0), 0.1% of NP-40 (a product of Sigma Co.), and 25 μM [N-methyl-^3H] sphingomyelin (0.006 μCi), and the mixture was filled up to a total volume of 50 μl. After reaction at 37° C. for 30 minutes, 200 μl of chloroform/methanol mixture (1/2 in volume ratio) was added thereto to separate the reaction product [^3H] phosphocholine from the starting material [^3H] sphingomyelin. The upper layer was taken up into a […]. The amount of [^3H] phosphocholine was quantitatively determined by a liquid scintillation counter to estimate the acid sphingomyelinase activity.

[1] = test system: Raji cell originating from human Burkitt lymphoma (triacylglycerol synthesis); test: Inhibitory action against synthesis of triacylglycerol in human-originated Raji cells; assay type: cell-based; conditions: [1-14C]oleic acid, 37° C., 30 minutes; for IC50: Homo sapiens, 0.5 h, read-out: drug concentration corresponding to 50% inhibition of triacylglycerol synthesis
Procedure: (2) Inhibitory Action against Synthesis of Triacylglycerol in Human-originated Cells (Raji Cell originating from Human Burkitt Lymphoma)
The assessment of the influence of the substances on triacylglycerol synthesis was performed in accordance with the method of Tomoda et al. [J. Biol. Chem., 266, 4214-4219 (1991)] using human-originated cells (Raji cell originated from human Burkitt lymphoma). A Raji cell dispersion of 2.7×10^6 cells per milliliter containing […] [1^−14C] oleic acid (0.02 μCi) was filled up to a total volume 200 μl, whereupon the reaction proceeded at 37° C. for 30 minutes. The total lipids were extracted with a chloroform/methanol (2/1) mixture. Then, the activity was measured in the same manner as in the “inhibitory action against rat-originated diacylglycerol-acyltransferase”.
The calculation of the drug concentration corresponding to 50% inhibition of triacylglycerol synthesis gives a value of 10 μg/ml for all the substances KF-1040T4A, KF-1040T4B, KF-1040T5A and KF-1040T5B.

[2] = target: diacylglycerol acyltransferase; test: Inhibitory action against rat-originated diacylglycerol acyltransferase (rat liver microsomal fraction); assay type: biochemical; conditions: [1-14C]palmitoyl-CoA, 23° C., 15 minutes
Procedure: (1) Inhibitory Action against Rat-originated Diacylglycerol Acyltransferase
The activity of diacylglycerol acyltransferase was determined in accordance with the method of Mayorek and BarTana, [J. Biol. Chem., 260, 6528-6532 (1985)] with partial modification.
Namely, a microsomal fraction prepared from rat liver was used as the enzyme source. To a 175 mM Tris-HCl buffer (pH 8.0) containing 8 mM of MgCl2, 1 mg/ml of bovine serum albumin and 2.5 mM of diisopropyl fluorophosphate, there were added 0.75 mM of dioleoylglycerol and 30 μM of [1^−14C] palmitoyl-CoA (0.02 μCi) and the total volume was adjusted to 200 μl, whereupon the enzymatic reaction mixture was incubated at 23° C. for 15 minutes. The total lipids were extracted with chloroform/methanol (1/2) mixture and each lipid was separated by a TLC (with Kiselgel GF254 and a developing solvent of petroleum ether/diethyl ether/acetic acid of 80/20/1), followed by measurement of the radioactivity of the triacylglycerol fraction using RI RADIO-SCANNER (manufactured by AMBIS System Inc., U.S.A.) to determine the diacylglycerol acyltransferase activity.

| Solubility in solvents: methanol, benzene, chloroform and ethyl acetate (Solubility in solvents) | Solubility in solvents: water and hexane (Solubility in solvents) | IC50 (acid sphingomyelinase) | IC50 [1] | drug concentration corresponding to 50% inhibition of diacylglycerol acyltransferase [2] | Structure (SMILES) | drug concentration corresponding to 50% inhibition of triacylglycerol synthesis [1] |
| --- | --- | --- | --- | --- | --- | --- |
| soluble | slightly soluble | 300 µM | 10 µg/mL (≈ 12.9 µM) | 13.2 µg/mL | CCC(C)CC(C)CC(C)C(OC1OC(CO)C(O)C(O)C1O)C(C)/C=C(\C)C(O)C(C)/C=C(\C)C(O)C(C)/C=C(\C)C(=O)OCC(O)C(O)C(O)CO (single isomer, unassigned) [KF-1040T4A] |  |
| soluble | slightly soluble | 59.8 µM |  | 14.7 µg/mL | CCC(C)CC(C)CC(C)C(OC1OC(COC(C)=O)C(O)C(O)C1O)C(C)/C=C(\C)C(O)C(C)/C=C(\C)C(O)C(C)/C=C(\C)C(=O)OCC(O)C(O)C(O)CO (single isomer, unassigned) [KF-1040T5B] | 10 µg/mL |
| soluble | slightly soluble | 90.1 µM |  | 11.6 µg/mL | CCC(C)CC(C)CC(C)C(OC1OC(CO)C(O)C(O)C1O)C(C)/C=C(\C)C(O)C(C)/C=C(\C)C(O)C(C)/C=C(\C)C(=O)OCC(O)C(O)C(O)CO (single isomer, unassigned) [KF-1040T4B] | 10 µg/mL |
| soluble | slightly soluble | 239 µM | 10 µg/mL (≈ 12.2 µM) | 18.0 µg/mL | CCC(C)CC(C)CC(C)C(OC1OC(COC(C)=O)C(O)C(O)C1O)C(C)/C=C(\C)C(O)C(C)/C=C(\C)C(O)C(C)/C=C(\C)C(=O)OCC(O)C(O)C(O)CO (single isomer, unassigned) [KF-1040T5A] |  |
